{"source": "patent US8647615B1", "about": "“Methods for attracting honey bee parasitic mites” (The United States of America, as represented by the …, priority 2010, dated 2014)", "key": {"Varroa mite forelegs": {"tested_on": "Varroa mite forelegs", "experiment": "coupled gas chromatography and electroantennographic detection (GC-EAD) with mite forelegs", "design": "species or system Varroa mites", "conditions": "standard with compounds at equal concentrations", "description": "To determine if mites can detect the acid compounds we used coupled gas chromatography and electroantennographic detection (GC-EAD) and electroantennography (EAG). […] A detecting electrode was set up with electrode gel on each contact and then a mite was dissected so that both of its forelegs could be set across the electrodes. The electrode gel provides both a better contact and keeps the forelegs from drying out. For GC-EAD we used a standard containing our two attractive acids along with other short chain acids (i.e., acetic acid, propanoic acid, and hexanoic acid) and common bee odors (iso-pentyl acetate, delta-3-carene, E-(β)-ocimine) at equal concentrations. […] We used EAG to determine the responses of forelegs to the individual detected compounds. […] The dashed line in FIG. 6 represents the level of the control response."}, "mites [1]": {"tested_on": "mites", "experiment": "two choice diffusion bioassay, Ethovision tracking", "type": "in vivo, Varroa mites", "conditions": "5% butyric acid in water vs water, 8 mites, p<0.001", "description": "(§1) This experiment used the tracking software Ethovision XT (Noldus Information Technology, Leesburg Va.) to monitor the position of mites in an arena. The arena was a four quadrant petri dish 7.5 cm in diameter, the sides of the dish were ground down so that the separations were all the same height as the edges. A plexiglass ring, 7.5 cm outside diameter 2.5 cm high, with 11 micron Nitex fabric attached to the bottom contained the mite and separated the mite from the odor sources but allowed the odors to diffuse through the fabric. The petri dish quadrants were filled either with 5% butyric acid in water, or water only as a control. Opposite quadrants were filled with the same material so that the bottom of each quadrant was completely covered with liquid. This ensured equal surface areas for diffusion of the solute and solvent. Each experiment was conducted with 8 mites. […] A second set of no choice assays was also performed, these assays used an un-separated petri dish to hold the 5% acid solution and the movements of the mites over the solution were monitored."}, "mites [2]": {"tested_on": "mites", "experiment": "no choice test with Ethovision analysis", "type": "in vivo, Varroa mites", "description": "as §1"}, "[3]": {"tested_on": "phoretic mites on adult bees", "experiment": "bottom screen assay: mite-infested adult worker bees in screen bottomed jar over water trap", "type": "in vivo, Varroa mites", "conditions": "20 minutes; for mites that fell off bees versus control jars: 200 mite-infested bees per jar, 100 μL, three replicates, control methylene chloride; for mite activity level versus control treatments: exposure to acid volatiles", "method": "We then performed a bottom screen assay to assess the response of phoretic mites on adult bees to the acid volatiles. We placed 200 mite-infested adult worker bees in a screen bottomed jar inverted over a water trap. A total of nine jars were used, three replicates of each treatment. The mites and bees were exposed to either butyric acid, isobutyric acid, or a control solvent (methylene chloride) (100 μL) for 20 minutes. Mites that moved off the bees fell into the water trap below. At the end of the experiment, the bees were washed with alcohol to estimate the number of mites that remained on the bees."}, "Free-roaming mites": {"tested_on": "Free-roaming mites", "experiment": "visual evaluation of free-roaming mites under the microscope", "type": "in vivo, Varroa mites", "conditions": "for excitation and search behaviors (questing and casting): acid volatiles from capillary tubes; for movement relative to acid droplets: free-roaming mites", "description": "(§2) Once we determined that the mites could perceive and respond to the acid volatiles, we examined whether these acids acted as attractants or repellents. We developed a four choice bioassay to evaluate the responses of mites to highly concentrated volatiles released at very close distances (7 mm). Our choice arena consisted of four odor sources presented directly beneath a permeable mesh floor. Each odor source was introduced by capillary release from a capillary tube, the volatiles diffused up through the permeable mesh floor. Free-roaming (off the adult bee) mites were introduced onto a vertical pin placed in the center of the arena. […] The expected value for response is 25% as indicated by the dashed line. […] Free-roaming mites were also exposed to these chemicals under the microscope to visually evaluate mite detection, attraction, and arrestant responses to the acid volatiles."}, "[4]": {"tested_on": "Free-roaming (off the adult bee) mites", "experiment": "four choice arena bioassay", "type": "in vivo, Varroa mites", "conditions": "for mite attraction: movement toward odor source (contact or position at end of bioassay): 5% by volume in distilled water vs three water controls, 5 minutes, expected value 25%; for arrestant (stopping) behavior: four choice arena, 5% by volume in distilled water", "description": "as §2, with “We” for “Once we determined that the mites could perceive and respond to the acid volatiles, we examined whether these acids acted as attractants or repellents. We”"}}, "note": "“Also recorded” adds a separate entry of the source.", "data": [{"smiles": "C=C/C(C)=C/CC=C(C)C", "note": "[E-(β)-ocimine]", "values": [{"measurement": "detection by mite forelegs (GC-EAD)", "setting": "Varroa mite forelegs", "value": "did not appear to be detected"}]}, {"smiles": "CC(=O)O", "note": "[acetic acid]", "values": [{"measurement": "detection by mite forelegs (GC-EAD)", "setting": "Varroa mite forelegs", "value": "could clearly detect"}]}, {"smiles": "CCCC(=O)O", "note": "[butyric acid]", "values": [{"measurement": "time spent in zone over odor source versus control zones", "setting": "mites [1]", "value": "spent significantly more time"}, {"measurement": "time spent in zone over odor source versus control zones", "setting": "mites [1]; listed as Butyric Acid", "value": "more time is spent"}, {"measurement": "movement (speed, stopping, time moving) versus water control", "setting": "mites [2]; 5% acid solution, un-separated petri dish", "value": "significantly less time moving; also recorded: moving slower and stopping more often"}, {"measurement": "time spent in zone/arena over the acid versus water", "setting": "mites [2]; 5% acid solution, un-separated petri dish, p<0.001", "value": "significantly more time; also recorded: spent more time in the arena"}, {"measurement": "arrestant behaviors on sustained exposure", "setting": "mites [2]; EthoVision diffusion bioassays, sustained exposure to high concentrations of volatiles", "value": "caused arrestant behaviors"}, {"measurement": "mites that fell off bees versus control jars", "setting": "[3]", "value": "significantly more mites fell off bees"}, {"measurement": "mite activity level versus control treatments", "setting": "[3]", "value": "much higher activity levels"}, {"measurement": "excitation and search behaviors (questing and casting)", "setting": "Free-roaming mites", "value": "showed excitation and search behaviors"}, {"measurement": "movement relative to acid droplets", "setting": "Free-roaming mites", "value": "moved toward and occasionally into acid droplets"}, {"measurement": "detection by mite forelegs (GC-EAD)", "setting": "Varroa mite forelegs", "value": "excited by"}, {"measurement": "mite attraction: movement toward odor source (contact or position at end of bioassay)", "setting": "[4]", "value": "significantly more likely to move in the direction of"}, {"measurement": "arrestant (stopping) behavior", "setting": "[4]", "value": "did not display any arrestant (stopping) behavior"}]}, {"smiles": "CC1=CCC2C(C1)C2(C)C", "note": "(stereo not shown) [delta-3-carene]", "values": [{"measurement": "detection by mite forelegs (GC-EAD)", "setting": "Varroa mite forelegs", "value": "did not appear to be detected"}]}, {"smiles": "CCCCCC(=O)O", "note": "[hexanoic acid]", "values": [{"measurement": "detection by mite forelegs (GC-EAD)", "setting": "Varroa mite forelegs", "value": "did not appear to be detected"}]}, {"smiles": "CC(=O)OCCC(C)C", "note": "[iso-pentyl acetate]", "values": [{"measurement": "detection by mite forelegs (GC-EAD)", "setting": "Varroa mite forelegs", "value": "did not appear to be detected"}]}, {"smiles": "CC(C)C(=O)O", "note": "[isobutyric acid]", "values": [{"measurement": "mites that fell off bees versus control jars", "setting": "[3]", "value": "significantly more mites fell off bees"}, {"measurement": "mite activity level versus control treatments", "setting": "[3]", "value": "much higher activity levels"}, {"measurement": "excitation and search behaviors (questing and casting)", "setting": "Free-roaming mites", "value": "showed excitation and search behaviors"}, {"measurement": "movement relative to acid droplets", "setting": "Free-roaming mites", "value": "moved toward and occasionally into acid droplets"}, {"measurement": "detection by mite forelegs (GC-EAD)", "setting": "Varroa mite forelegs", "value": "excited by"}, {"measurement": "mite attraction: movement toward odor source (contact or position at end of bioassay)", "setting": "[4]", "value": "significantly more likely to move in the direction of"}, {"measurement": "arrestant (stopping) behavior", "setting": "[4]", "value": "did not display any arrestant (stopping) behavior"}]}, {"smiles": "CCC(=O)O", "note": "[propanoic acid]", "values": [{"measurement": "detection by mite forelegs (GC-EAD)", "setting": "Varroa mite forelegs", "value": "did not appear to be detected"}]}]}
